From patent publication US7053097B1, “Inhibitors of glycogen synthase 3 kinase” (Chiron Corporation, priority 1996, dated 2006) come the findings set out here.

The experiment deals with GSK-3β (Homo sapiens, UniProt P49841). Description: GSK3 kinase inhibition assay, biotin-phosphopeptide substrate, streptavidin plate scintillation counting. It counts as biochemical. The following applies: compound at 1 μM; 180 min at room temperature. How it is done: (B) The compounds prepared in Example 1 above were assayed for activity as follows:
A 96-well round bottom plate was blocked by incubation with 400 μl/well 1% BSA/PBS for 60 min at room temperature. The blocking reagent was then aspirated. An enzyme/substrate buffer was prepared (1.225 ml 1M Tris-HCl, pH 7.5, 0.41 ml 1M MgCl2, 41 μl DTT, 250 μl 500 μg/ml GSK-3β, 9.5 μl 5 mg/ml biotin-phosphopeptide, 33.1 ml 1% BSA/PBS), and 300 μl enzyme/substrate/buffer was added to each well.
Varying concentrations of each compound were added to individual wells, or staurosporine in DMSO (final concentrations of staurosporine 100 nM or 20 nM). Next 50 μl/well ATP mixture (3.85 μl 10 mM cold ATP, 8 μl hot ATP, 5.5 ml H2O) was added, and the reaction allowed to proceed for 180 min at room temperature.
Three streptavidin-coated Labsystems Combiplate 8 plates were blocked with 1% BSA/PBS, 300 μl/well, for ≧60 min at room temperature, and the blocking reagent aspirated. Stopping reagent (50 μM ATP, 20 mM EDTA) (100 μl/well) was added to the streptavidin-coated plates, and 100 μl of the enzyme reaction mixture transferred to the streptavidin-coated plates in triplicate. […] Finally, Microscint-20 scintillation fluid (200 μl/well) was added to the plates, the plates sealed, and after incubating for 30 min, counted on a TopCount counter.

Sequence of GSK-3β (P49841 whole entry, species assumed): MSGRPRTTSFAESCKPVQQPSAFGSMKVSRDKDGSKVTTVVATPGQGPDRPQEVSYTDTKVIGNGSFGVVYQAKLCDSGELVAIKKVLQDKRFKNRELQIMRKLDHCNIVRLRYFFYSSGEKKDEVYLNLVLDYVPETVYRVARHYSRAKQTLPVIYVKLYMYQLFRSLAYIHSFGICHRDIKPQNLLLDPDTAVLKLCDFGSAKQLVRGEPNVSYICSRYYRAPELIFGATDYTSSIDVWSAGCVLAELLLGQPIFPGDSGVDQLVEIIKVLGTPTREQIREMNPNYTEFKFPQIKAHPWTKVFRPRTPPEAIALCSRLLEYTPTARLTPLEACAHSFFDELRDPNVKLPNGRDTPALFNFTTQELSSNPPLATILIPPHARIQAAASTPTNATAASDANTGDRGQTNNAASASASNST

As to `COCC(=O)N(CC(N)=O)c1nc(NCc2ccc(C(F)(F)F)cc2)c2ncn(C)c2n1` [Compound 21208], the inhibition at 1 µM is 63%.
